ChEMBL document CHEMBL1201862, “PubChem BioAssay data set” (2004)
Blank lines part the entries; values can stand above or below the molecule they belong to. The source made the active and inactive calls.

Columns and labels:
[1] = miR-122 activators in hepatoma reporter cells, dose response, cell-based, Huh7 psiCHECK-miR122, Renilla luciferase, cherry-picked (AID 651956); assay type: functional;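 also: huh7 hepatoma cells stably carrying a psiCHECK-2 miR-122 sensor plasmid; renilla luciferase signal reporting endogenous miR-122 activity after 48 h compound exposure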
[2] = HEK293T cytotoxicity, dose response, cytotoxicity control for miR-122 modulator project, cell-based, inhibitor set, cherry-pick, set 2 (AID 720697); assay type: functional
[3] = molecular target: Disintegrin and metalloproteinase domain-containing protein 17 (Homo sapiens, UniProt P78536); assay: exosite inhibitors of ADAM17, dose response, biochemical (AID 743260)
Sequence of Disintegrin and metalloproteinase domain-containing protein 17 (P78536 whole entry, the tested form may be a part): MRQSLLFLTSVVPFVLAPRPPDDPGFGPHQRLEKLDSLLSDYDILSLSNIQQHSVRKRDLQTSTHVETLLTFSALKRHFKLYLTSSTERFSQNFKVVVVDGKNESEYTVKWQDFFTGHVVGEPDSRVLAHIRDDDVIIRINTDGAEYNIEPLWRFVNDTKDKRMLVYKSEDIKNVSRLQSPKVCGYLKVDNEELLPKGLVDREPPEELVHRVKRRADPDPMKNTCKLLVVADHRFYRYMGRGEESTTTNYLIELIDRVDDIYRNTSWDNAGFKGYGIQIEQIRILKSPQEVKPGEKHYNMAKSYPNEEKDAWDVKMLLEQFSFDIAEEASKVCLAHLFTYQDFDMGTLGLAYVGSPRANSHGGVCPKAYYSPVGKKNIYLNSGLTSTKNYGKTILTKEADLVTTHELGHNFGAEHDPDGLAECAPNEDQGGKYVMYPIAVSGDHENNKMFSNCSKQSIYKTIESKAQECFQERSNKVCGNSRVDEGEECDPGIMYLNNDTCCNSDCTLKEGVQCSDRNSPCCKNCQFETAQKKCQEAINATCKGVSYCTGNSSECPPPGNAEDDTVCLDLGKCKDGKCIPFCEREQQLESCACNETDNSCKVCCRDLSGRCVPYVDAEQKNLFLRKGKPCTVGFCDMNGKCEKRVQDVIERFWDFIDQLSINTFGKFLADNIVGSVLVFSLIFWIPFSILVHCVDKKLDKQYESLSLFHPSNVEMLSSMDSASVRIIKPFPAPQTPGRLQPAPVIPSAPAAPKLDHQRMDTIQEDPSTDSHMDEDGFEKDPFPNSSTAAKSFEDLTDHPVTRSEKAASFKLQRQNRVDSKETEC

[4] = ADAM10 protease inhibitors, dose response, selectivity assay for ADAM17 exosite inhibitor project, biochemical, FRET peptide substrate, recombinant human ADAM10 (AID 743259);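 also: ADAM10 enzyme cleaving a FRET peptide substrate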
[5] = cells; assay type: functional, cell-based; conditions: HEK-CNG
[6] = molecular target: T1, Galanin receptor type 3 (Homo sapiens, UniProt O60755); assay: Fluorescence-based cell-based primary high throughput dose response assay to identify antagonists of the Galanin Receptor 3 (GalR3).; assay type: functional
T1 sequence (O60755 whole entry): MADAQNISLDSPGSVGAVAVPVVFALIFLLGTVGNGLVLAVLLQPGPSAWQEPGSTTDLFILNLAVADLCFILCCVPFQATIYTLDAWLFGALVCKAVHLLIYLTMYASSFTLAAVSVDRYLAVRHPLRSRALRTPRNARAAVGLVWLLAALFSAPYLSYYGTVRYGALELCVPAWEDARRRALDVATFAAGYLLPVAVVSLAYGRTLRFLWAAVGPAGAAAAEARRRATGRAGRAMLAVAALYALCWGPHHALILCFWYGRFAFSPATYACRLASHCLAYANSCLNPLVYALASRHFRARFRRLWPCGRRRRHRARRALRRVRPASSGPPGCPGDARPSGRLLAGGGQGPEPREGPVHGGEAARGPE

[7] = molecular target: FAD-linked sulfhydryl oxidase ALR (Homo sapiens, UniProt P55789); assay: inhibitors of human ALR sulfhydryl oxidase, dose response, biochemical, H2O2 detection, luminescence, cherry-pick (AID 493248)
Sequence of FAD-linked sulfhydryl oxidase ALR (P55789 whole entry): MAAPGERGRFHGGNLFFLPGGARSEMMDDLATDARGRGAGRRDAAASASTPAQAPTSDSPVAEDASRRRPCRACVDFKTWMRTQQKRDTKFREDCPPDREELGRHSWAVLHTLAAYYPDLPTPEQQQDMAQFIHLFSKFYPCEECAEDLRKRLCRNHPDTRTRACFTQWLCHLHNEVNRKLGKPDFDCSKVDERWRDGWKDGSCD

[8] = molecular target: T2, Corticotropin-releasing factor receptor 2/Corticotropin-releasing factor-binding protein (Homo sapiens, UniProt P24387+Q13324); assay: Dose Response confirmation of uHTS hits for small molecule antagonists of the CRF-binding protein and CRF-R2 receptor complex.; assay type: functional; conditions: read-out: IC50_Mean
T2 sequence (Q13324 whole entry): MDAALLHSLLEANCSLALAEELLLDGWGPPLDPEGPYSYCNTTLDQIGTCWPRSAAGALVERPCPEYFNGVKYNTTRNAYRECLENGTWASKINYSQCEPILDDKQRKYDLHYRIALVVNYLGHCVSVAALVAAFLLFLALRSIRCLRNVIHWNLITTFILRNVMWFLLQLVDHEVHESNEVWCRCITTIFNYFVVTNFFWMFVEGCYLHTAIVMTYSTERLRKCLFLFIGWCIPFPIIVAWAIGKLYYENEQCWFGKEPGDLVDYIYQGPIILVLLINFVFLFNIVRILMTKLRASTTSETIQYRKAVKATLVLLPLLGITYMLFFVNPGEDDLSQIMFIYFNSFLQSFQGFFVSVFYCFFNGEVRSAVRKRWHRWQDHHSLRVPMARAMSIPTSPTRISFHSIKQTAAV
T2 sequence (P24387 whole entry): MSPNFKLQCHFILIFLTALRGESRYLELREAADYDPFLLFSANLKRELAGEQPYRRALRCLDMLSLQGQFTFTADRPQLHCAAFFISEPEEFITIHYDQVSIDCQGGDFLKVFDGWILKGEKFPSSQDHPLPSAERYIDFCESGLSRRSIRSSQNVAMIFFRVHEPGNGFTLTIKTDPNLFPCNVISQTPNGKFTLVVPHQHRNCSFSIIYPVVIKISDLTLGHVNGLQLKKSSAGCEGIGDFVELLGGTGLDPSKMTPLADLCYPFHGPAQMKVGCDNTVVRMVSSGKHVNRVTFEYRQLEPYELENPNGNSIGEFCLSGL

[9] = molecular target: T2, Corticotropin-releasing factor receptor 2/Corticotropin-releasing factor-binding protein; assay: activators of CRF receptor 2 with binding protein – uHTS hits, confirmation (AID 602473); assay type: functional; conditions: read-out: EC50_Mean
[10] = CRF-BP/CRF-R2 complex antagonists, dose response, cell-based, uHTS hits, 384-well (AID 651639); assay type: functional, Homo sapiens; conditions: read-out: IC50_Mean
[11] = molecular target: T3, E3 ubiquitin-protein ligase XIAP (Homo sapiens, UniProt P98170); assay: Counter Screen using XIAP-Bir3 for Chemical Antagonists of Bir1/2 domains of IAP-family anti-apoptotic proteins. [Related pubchem assays (depositor defined):AID1018, AID1449, AID1514, AID1638, AID1749, AID1750, AID488957, AID488963]
T3 sequence (P98170 whole entry): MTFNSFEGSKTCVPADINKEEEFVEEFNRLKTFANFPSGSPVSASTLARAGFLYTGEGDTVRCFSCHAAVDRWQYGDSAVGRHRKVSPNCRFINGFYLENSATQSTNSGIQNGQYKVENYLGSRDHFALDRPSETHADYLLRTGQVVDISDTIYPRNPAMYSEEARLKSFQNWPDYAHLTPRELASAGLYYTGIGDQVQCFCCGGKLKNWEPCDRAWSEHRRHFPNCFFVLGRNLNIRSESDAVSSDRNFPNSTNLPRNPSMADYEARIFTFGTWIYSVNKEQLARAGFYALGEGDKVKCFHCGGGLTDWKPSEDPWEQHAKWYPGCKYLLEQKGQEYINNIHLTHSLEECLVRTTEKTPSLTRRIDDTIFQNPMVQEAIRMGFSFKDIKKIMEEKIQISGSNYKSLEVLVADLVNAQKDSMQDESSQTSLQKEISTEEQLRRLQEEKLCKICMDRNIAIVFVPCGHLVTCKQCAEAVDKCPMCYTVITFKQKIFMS

[12] = molecular target: T3, E3 ubiquitin-protein ligase XIAP; assay: XIAP antagonists, biochemical, IAP family, fluorescence polarization (AID 1018); assay type: functional
[13] = molecular target: Heat shock protein HSP 90-alpha (Homo sapiens, UniProt P07900); assay type: functional, organism-based
[14] = cytotoxicity in OVCAR8 ovarian cancer cells, dose response, PAX8 project, cell-based, plate reader, dry powder samples (AID 743197); assay type: functional; conditions: OVCAR-8
[15] = NIH:OVCAR-3 ovarian cancer cell cytotoxicity, dose response, PAX8 inhibitor project, plate reader, dry powder samples (AID 743044); assay type: functional, cell-based
[16] = molecular target: Paired box protein Pax-8 (Homo sapiens, UniProt Q06710); assay: inhibitors of PAX8-driven TPO luciferase reporter, dose response, RMG-I cells, cherry-pick (AID 687027); assay type: functional, cell-based;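 also: luciferase reporter driven by Pax8 target thyroperoxidase promoter measured by SteadyGlo luminescence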
Sequence of Paired box protein Pax-8 (Q06710 whole entry): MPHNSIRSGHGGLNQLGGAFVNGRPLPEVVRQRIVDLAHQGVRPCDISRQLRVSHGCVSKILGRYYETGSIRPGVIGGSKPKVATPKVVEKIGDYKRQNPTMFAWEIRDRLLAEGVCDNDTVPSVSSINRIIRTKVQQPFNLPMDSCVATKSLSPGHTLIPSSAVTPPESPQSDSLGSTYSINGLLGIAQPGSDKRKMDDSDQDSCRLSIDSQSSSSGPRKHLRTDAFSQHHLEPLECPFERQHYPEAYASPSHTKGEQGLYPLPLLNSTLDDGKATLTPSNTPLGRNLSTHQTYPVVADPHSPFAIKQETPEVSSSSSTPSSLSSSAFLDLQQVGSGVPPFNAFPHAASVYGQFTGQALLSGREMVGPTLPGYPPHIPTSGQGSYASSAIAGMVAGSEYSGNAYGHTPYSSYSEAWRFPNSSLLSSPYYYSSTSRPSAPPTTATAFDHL

[17] = HeLa cell cytotoxicity, dose response, cytotoxicity control for MgcRacGAP inhibitor project (AID 624300); assay type: functional
[18] = off-target signal loss in HeLa-CEM21 co-culture – HeLa F-luc CTL cells, cherry-picked, counter-screen for HIV-1 Env fusion inhibitor project, dose response (AID 652040); assay type: functional, cell-based;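 also: potency for signal decrease marking cytotoxic or nonspecific inhibition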
[19] = CEM21 lymphoblast cell cytotoxicity, dose response, cytotoxicity control for viral fusion inhibitor project, CellTiter-Glo luminescence, cherry-picked (AID 652042); assay type: functional, cell-based;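 also: potency for signal decrease meaning cytotoxicity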
[20] = HEK293 cell cytotoxicity, dose response, cytotoxicity control, plate reader, cherry-picked samples (AID 743446); assay type: functional, cell-based
[21] = A549 cell cytotoxicity, dose response, cytotoxicity control, plate reader, cherry-pick, antagonist series (AID 743412); assay type: functional, cell-based
[22] = ZM109 Env clade C HIV-1 fusion inhibitors, dose response, HeLa effector, CEM target cells, luciferase, cherry-pick (AID 652058); assay type: functional, cell-based
[23] = HepG2 cell cytotoxicity, dose response, cytotoxicity control, plate reader, cherry-pick, antagonist series (AID 743416); assay type: functional, cell-based
[24] = LGR2 antagonists, dose response, cell-based, HEK293, CRE-luciferase reporter, cherry pick, set 2 (AID 743343); assay type: functional;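 also: transfected cells were stimulated with diluted bursicon conditioned medium after compound addition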
[25] = MC4R antagonists, dose response, counter-screen for LGR2 antagonist project, cell-based, plate reader, cherry pick (AID 743444); assay type: functional;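 also: transfected HEK 293 cells stimulated with alpha-MSH peptide; potency of inhibitors of the alpha-MSH evoked signal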
[26] = inhibitors of clade B AD8 Env fusion, dose response, cell-based, cherry-pick (AID 652062); assay type: functional;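 also: luciferase signal from cell-cell fusion driven by HIV-1 clade B AD8 Env; potency is for inhibitors of fusion seen as a drop in luminescence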
[27] = inhibitors of HIV Env-driven cell fusion, dose response, cherry-pick (AID 652057); assay type: functional, cell-based

Structure (SMILES): CN(C)c1ncnc2c1ncn2C1OC(CO)C(O)C1O (centres undefined)
AC50 [1]: 25.4 µM (active) | AC50 [2]: 8.52 µM (active)

IC50 [3]: > 69.5 µM (inactive)
Structure (SMILES): CCOC(=O)C1=C(C(=O)OCC)C2N(Cc3ccc(C#N)cc3)c3ccccc3[C@@]23C[C@@H](C(=O)OC)N(S(=O)(=O)c2ccc(OC)cc2)C3=N1 (some centres undefined)
IC50 [4]: 15.4 µM (inactive)

Structure (SMILES): Cn1c(C(=O)NN)cc2cc(Oc3ccccc3)ccc21
EC50 [5]: > 29.9 µM (inactive) | IC50 [6]: 8.17 µM (active)

AC50 [7]: 0.025 µM (active) | IC50 [8]: 33.1 µM (active) | EC50 [9]: > 53 µM (inactive) | IC50 [10]: > 20 µM (inactive)
Structure (SMILES): Cc1nc2c(C)cccc2cc1C(=O)N/N=C/c1ccc(O)cc1

Structure (SMILES): CCOC(=O)c1[nH]c2ccc(OC)cc2c1NS(=O)(=O)c1ccc(Cl)s1
EC50 [5]: > 29.9 µM (inactive) | IC50 [6]: 1.45 µM (active)

IC50 [11]: > 100 µM (inactive) | IC50 [12]: > 100 µM (not active) | AC50 [13]: 3.3 µM (active)
Structure (SMILES): CCOc1ccccc1N1CCN(C(=O)c2cccc(-c3ccc(O)cc3)c2)CC1

Structure (SMILES): C[C@H]1CCCCO[C@H](CN(C)C(=O)C2CCCCC2)[C@@H](C)CN([C@@H](C)CO)C(=O)c2cc(NS(=O)(=O)c3ccc(Cl)cc3)ccc2O1
AC50 [14]: > 70 µM (inactive) | AC50 [15]: 33.9 µM (active) | AC50 [16]: 11.5 µM (active)

Structure (SMILES): N=C(NOC(=O)N1c2ccccc2Sc2ccccc21)c1ccc(Br)cc1
CC50 [17]: 63.6 µM (active)

Structure (SMILES): O=C(NC1CCCCC1)c1[nH]nc2c1CCCCC2
AC50 [18]: 13.8 µM (active) | AC50 [19]: 29.7 µM (active) | AC50 [20]: > 52 µM (inactive) | AC50 [21]: 37.1 µM (active) | AC50 [22]: 16.3 µM (active) | AC50 [23]: > 52 µM (inactive) | AC50 [24]: 3.2 µM (active) | AC50 [25]: 2.24 µM (active) | AC50 [26]: 7.38 µM (active) | AC50 [27]: 6.09 µM (active)
